Laboratory results taken from patent US9115073B2, “1,3-diphenylpropane derivatives, preparations and uses thereof” (GENFIT, priority 2011, dated 2015).
Where a name gives a salt, the structure may show the parent alone.

Legend:
hPPARdelta = target: T1, hPPARdelta (Homo sapiens, UniProt Q03181); assay: Gal4-hPPARdelta transactivation assay in COS-7 cells (luciferase); assay type: cell-based; conditions: for EC50: Gal4-hPPARδ(LBD) transactivation
T1 construct: Gal4-hPPARδ(LBD); Gal4 (fusion partner); expressed in transfected cells; host or cells: COS-7 (monkey kidney)
T1 sequence (Q03181 211-439 limits assumed): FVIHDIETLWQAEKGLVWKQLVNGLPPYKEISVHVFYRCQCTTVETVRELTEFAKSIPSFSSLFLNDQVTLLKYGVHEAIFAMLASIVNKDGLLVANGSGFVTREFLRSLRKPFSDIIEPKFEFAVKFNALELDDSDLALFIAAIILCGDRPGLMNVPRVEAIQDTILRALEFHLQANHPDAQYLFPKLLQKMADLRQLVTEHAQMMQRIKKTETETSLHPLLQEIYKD
Procedure, shortened: (§1)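 COS-7 cells transiently co-transfected with Gal4-hPPAR chimeras and a Gal4(RE)_TkpGL3 luciferase reporter (1/50 ratio) were seeded at 20,000 cells/well for 4 h, then treated in 2% lipid-free synthetic serum medium (0.1% DMSO). EC50 and Hill slope came from fitted luciferase curves. Emax is relative to fenofibrate 100 μM (α), rosiglitazone 10 μM (γ) or GW501516 1 μM (δ).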

hPPARgamma = target: T2, hPPARgamma (Homo sapiens, UniProt P37231); assay: Gal4-hPPARgamma transactivation assay in COS-7 cells (luciferase); assay type: cell-based; conditions: for EC50: Gal4-hPPARγ(LBD) transactivation
T2 construct: Gal4-hPPARγ(LBD); Gal4 (fusion partner); expressed in transfected cells; host or cells: COS-7 (monkey kidney)
T2 sequence (P37231 238-503 limits assumed): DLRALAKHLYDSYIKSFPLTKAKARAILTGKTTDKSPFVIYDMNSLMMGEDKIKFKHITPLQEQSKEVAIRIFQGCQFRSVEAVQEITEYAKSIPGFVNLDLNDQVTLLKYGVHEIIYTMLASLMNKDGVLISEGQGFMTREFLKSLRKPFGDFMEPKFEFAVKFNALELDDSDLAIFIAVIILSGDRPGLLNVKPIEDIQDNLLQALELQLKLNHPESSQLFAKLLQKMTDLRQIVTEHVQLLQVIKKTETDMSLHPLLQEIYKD
Procedure, shortened: as §1

hPPARalpha = target: T3, hPPARalpha (Homo sapiens, UniProt Q07869); assay: Gal4-hPPARalpha transactivation assay in COS-7 cells (luciferase); assay type: cell-based; conditions: for EC50: Gal4-hPPARα(LBD) transactivation
T3 construct: Gal4-hPPARα(LBD); Gal4 (fusion partner); expressed in transfected cells; host or cells: COS-7 (monkey kidney)
T3 sequence (Q07869 239-466 limits assumed): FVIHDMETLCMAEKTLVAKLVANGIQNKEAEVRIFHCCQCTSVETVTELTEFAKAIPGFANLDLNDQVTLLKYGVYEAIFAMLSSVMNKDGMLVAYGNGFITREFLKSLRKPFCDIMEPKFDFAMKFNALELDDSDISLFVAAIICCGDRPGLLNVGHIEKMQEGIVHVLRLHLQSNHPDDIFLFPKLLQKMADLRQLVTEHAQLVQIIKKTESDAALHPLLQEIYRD
Procedure, shortened: as §1

Row | Compound | Emax (hPPARdelta; COS-7, maximal relative activation vs reference, read-out: Gal4-hPPARδ(LBD) TOP (% ref)) [%] | EC50 (hPPARdelta) [nM] | Emax (hPPARgamma; COS-7, maximal relative activation vs reference, read-out: Gal4-hPPARγ(LBD) TOP (% ref)) [%] | EC50 (hPPARgamma) [nM] | melting point [°C] | Emax (hPPARalpha; COS-7, maximal relative activation vs reference, read-out: Gal4-hPPARα(LBD) TOP (% ref)) [%] | EC50 (hPPARalpha) [nM]
1 | COC(c1ccc(Br)cc1)C1CC1c1cc(C)c(OC(C)(C)C(=O)O)c(C)c1 (racemic) [Cpd 1-1, 2-(4-(2-(methoxy(4-bromophenyl)methyl)cyclopropyl)-2,6-dimethylphenoxy)-2-methylpropanoic acid] | 84 | 40 | 68 | 44 | 133 | 44 | 239
2 | COC(c1ccc(OC(F)(F)F)cc1)C1CC1c1cc(C)c(OC(C)(C)C(=O)O)c(C)c1 (single isomer, unassigned) (as salt: TFA) [Cpd 14-1-1, 2-(4-(2-(methoxy(4-(trifluoromethoxy)phenyl)methyl)cyclopropyl)-2,6-dimethylphenoxy)-2-methylpropanoic acid] |  |  |  |  | 155 to 156 |  | 
3 | COC(c1ccc(OC(F)(F)F)cc1)C1CC1c1cc(C)c(OC(C)(C)C(=O)O)c(C)c1 (single isomer, unassigned) [Cpd 14-2, 2-(4-(2-(methoxy(4-(trifluoromethoxy)phenyl)methyl)cyclopropyl)-2,6-dimethylphenoxy)-2-methylpropanoic acid] |  | 30 |  | 17 | 190 to 194 |  | 41
